In patent US8772509B2, “Indole compounds as positive allosteric modulators of the muscarinic receptor” (Vanderbilt University, priority 2010, dated 2014):

Molecular target: T1, mAChR M1 (UniProt P08482)
T1 sequence (P08482 1-460): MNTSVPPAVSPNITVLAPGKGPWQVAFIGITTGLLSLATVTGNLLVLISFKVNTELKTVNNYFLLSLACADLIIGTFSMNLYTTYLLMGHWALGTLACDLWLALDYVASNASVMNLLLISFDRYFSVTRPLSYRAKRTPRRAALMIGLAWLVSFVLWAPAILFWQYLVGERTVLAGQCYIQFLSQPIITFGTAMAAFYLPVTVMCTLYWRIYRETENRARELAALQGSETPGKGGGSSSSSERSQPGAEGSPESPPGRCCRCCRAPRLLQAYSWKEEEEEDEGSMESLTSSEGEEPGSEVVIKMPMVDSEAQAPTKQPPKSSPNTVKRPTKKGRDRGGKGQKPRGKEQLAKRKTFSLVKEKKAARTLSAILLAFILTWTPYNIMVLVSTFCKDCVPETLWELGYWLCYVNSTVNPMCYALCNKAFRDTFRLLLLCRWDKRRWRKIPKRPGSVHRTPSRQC
Test: mAChR M1 cell-based functional assay (calcium mobilization, Fluo-4, FDSS)
Conditions: for Efficacy (% ACh maximum at 30 μM): maximal calcium flux response from curve fit or response at 30 μM compound, as % of the EC80 ACh response; for EC50: positive allosteric modulation of EC20 acetylcholine response, CHO-K1 cells expressing mAChR M1, read-out: Potency (EC50)
Protocol: Chinese hamster ovary (CHO-K1) cells stably expressing rat (r)M1 were purchased from the American Type Culture Collection and cultured according to their indicated protocol. […] To make stable rM2, hM2, rM3, hM4, and rM4 cell lines for use in calcium mobilization assays, these cells also were stably transfected with a chimeric G-protein (Gqi5) (provided by B. R. Conklin, University of California, San Francisco) using Lipofectamine 2000. rM1, hM1, rM3, hM3, rM5, and hM5 cells were grown in Ham's F-12 medium containing 10% heat-inactivated fetal bovine serum (FBS), 20 mM HEPES, and 50 μg/mL G418 sulfate. rM2-Gqi5, hM2-Gqi5, and hM4-Gqi5 cells were grown in the same medium also containing 500 μg/mL Hygromycin B. Stable rM4-Gqi5 cells were grown in DMEM containing 10% heat-inactivated FBS, 20 mM HEPES, 400 μg/mL G418 sulfate, and 500 μg/mL Hygromycin B.
For high throughput measurement of agonist-evoked increases in intracellular calcium, CHO-K1 cells stably expressing muscarinic receptors were plated in growth medium lacking G418 and hygromycin at 15,000 cells/20 μL/well in Greiner 384-well black-walled, tissue culture (TC)-treated, clear-bottom plates (VWR). Cells were incubated overnight at 37° C. and 5% CO2. […] Compound master plates were formatted in an 11 point CRC format (1:3 dilutions) in 100% DMSO with a starting concentration of 10 mM using the BRAVO liquid handler (Agilent). Test compound CRCs were then transferred to daughter plates (240 nL) using the Echo acoustic plate reformatter (Labcyte, Sunnyvale, Calif.) and then diluted into assay buffer (40 μL) to a 2× stock using a Thermo Fisher Combi (Thermo Fisher Scientific, Waltham, Mass.).
Calcium flux was measured using the Functional Drug Screening System (FDSS) 6000 (Hamamatsu Corporation, Tokyo, Japan) as an increase in the fluorescent static ratio. Compounds were applied to cells (20 μL, 2×) using the automated system of the FDSS 6000 at 4 s into the 300 s protocol and the data were collected at 1 Hz. […] Agonist activity was analyzed as a concentration-dependent increase in calcium mobilization upon compound addition. Positive allosteric modulator activity was analyzed as a concentration-dependent increase in the EC20 acetylcholine response. Antagonist activity was analyzed as a concentration-dependent decrease in the EC80 acetylcholine response. Concentration-response curves were generated using a four-parameter logistical equation in XLfit curve fitting software (IDBS, Bridgewater, N.J.) for Excel (Microsoft, Redmond, Wash.) or Prism (GraphPad Software, Inc., San Diego, Calif.).
The calcium mobilization assay was also used to determine “efficacy”. In the context of the assays carried out for the data in Table I, “efficacy” (% ACh at 30 μM) is defined as the maximal response in the calcium flux as determined by the sigmoidal curve fit of the concentration response curve, or in the absence of an acceptable curve fit, the response recorded at 30 μM test compound, stated as a percentage of the response elicited by a concentration of Ach that induces approximately 80% of a maximal (i.e. saturating) ACh response.

| Structure (SMILES) | Efficacy (% ACh maximum at 30 μM) | EC50 |
| --- | --- | --- |
| Cc1cc(NC(=O)CS(=O)(=O)c2cn(Cc3ccc(F)c(Cl)c3)c3ccccc23)no1 [compound 52, 2-{1-[(3-chloro-4-fluorophenyl)methyl]-1H-indole-3-sulfonyl}-N-(5-methyl-1,2-oxazol-3-yl)acetamide] | – | > 10 µM |
| O=C(CS(=O)(=O)c1cn(Cc2cccc(Br)c2)c2cc(F)cc(F)c12)NCc1ccccn1 [compound 39, 2-((1-(3-bromobenzyl)-4,6-difluoro-1H-indol-3-yl)sulfonyl)-N-(pyridin-2-ylmethyl)acetamide] | 34% | > 10 µM |
| O=C(CS(=O)(=O)c1cn(Cc2cccc(-c3cccnc3Cl)c2)c2cc(F)cc(F)c12)Nc1ccccn1 [compound 11, 2-((1-(3-(2-chloropyridin-3-yl)benzyl)-4,6-difluoro-1H-indol-3-yl)sulfonyl)-N-(pyridin-2-yl)acetamide] | 43% | 2.7 µM |
| Cc1cc(NC(=O)C(Cc2cccc(Cl)c2)S(=O)(=O)c2cn(Cc3cccc(Cl)c3)c3ccccc23)no1 (stereo not drawn) [compound 69, 3-(3-chlorophenyl)-2-{1-[(3-chlorophenyl)methyl]-1H-indole-3-sulfonyl}-N-(5-methyl-1,2-oxazol-3-yl)propanamide] | – | > 10 µM |
| Cc1cc(NC(=O)CS(=O)(=O)c2cn(Cc3cccc(Cl)c3)c3ccccc23)no1 [compound 32, 2-((1-(3-chlorobenzyl)-1H-indol-3-yl)sulfonyl)-N-(5-methylisoxazol-3-yl)acetamide] | 96% | 5.82 µM |
| Cc1cc(NC(=O)C(Cc2ccc(OC(F)(F)F)cc2)S(=O)(=O)c2cn(Cc3ccc(OC(F)(F)F)cc3)c3ccccc23)no1 (stereo not drawn) [compound 74, N-(5-methyl-1,2-oxazol-3-yl)-3-[4-(trifluoromethoxy)phenyl]-2-(1-{[4-(trifluoromethoxy)phenyl]methyl}-1H-indole-3-sulfonyl)propanamide] | – | > 10 µM |
| Cc1cc(NC(=O)CS(=O)(=O)c2cn(Cc3cccc(C(F)(F)F)c3)c3ccccc23)no1 [compound 54, N-(5-methyl-1,2-oxazol-3-yl)-2-(1-{[3-(trifluoromethyl)phenyl]methyl}-1H-indole-3-sulfonyl)acetamide] | – | > 10 µM |
| [N-]=[N+]=Nc1cccc(Cn2cc(S(=O)(=O)CC(=O)Nc3ccccn3)c3c(F)cc(F)cc32)c1 [compound 13, 2-((1-(3-azidobenzyl)-4,6-difluoro-1H-indol-3-yl)sulfonyl)-N-(pyridin-2-yl)acetamide] | 53% | 2.8 µM |
| Cc1cc(NC(=O)C(Cc2ccc(F)cc2F)S(=O)(=O)c2cn(Cc3ccc(F)cc3F)c3ccccc23)no1 (stereo not drawn) [compound 71, 3-(2,4-difluorophenyl)-2-{1-[(2,4-difluorophenyl)methyl]-1H-indole-3-sulfonyl}-N-(5-methyl-1,2-oxazol-3-yl)propanamide] | – | > 10 µM |
| O=C(CS(=O)(=O)c1cn(Cc2cccc(Br)c2)c2cc(F)cc(F)c12)Nc1noc2ccccc12 [compound 21, N-(benzo[d]isoxazol-3-yl)-2-((1-(3-bromobenzyl)-4,6-difluoro-1H-indol-3-yl)sulfonyl)acetamide] | 72% | 3.7 µM |
| Cc1cc(NC(=O)CS(=O)(=O)c2cn(Cc3ccc(F)cc3F)c3ccccc23)no1 [compound 49, 2-{1-[(2,4-difluorophenyl)methyl]-1H-indole-3-sulfonyl}-N-(5-methyl-1,2-oxazol-3-yl)acetamide] | – | > 10 µM |
| Cc1cc(NC(=O)CS(=O)(=O)c2cn(Cc3cccc(-c4ccccc4)c3)c3ccccc23)no1 [compound 56, N-(5-methyl-1,2-oxazol-3-yl)-2-{1-[(3-phenylphenyl)methyl]-1H-indole-3-sulfonyl}acetamide] | – | > 10 µM |

More lines, now with the values ahead:

| Efficacy (% ACh maximum at 30 μM) | EC50 | Structure (SMILES) |
| --- | --- | --- |
| 66% | 1.2 µM | Cc1cc(NC(=O)CS(=O)(=O)c2cn(Cc3cccc(-c4ccncc4)c3)c3cc(F)cc(F)c23)no1 [compound 2, 2-((4,6-difluoro-1-(3-(pyridin-4-yl)benzyl)-1H-indol-3-yl)sulfonyl)-N-(5-methylisoxazol-3-yl)acetamide] |
| 63% | 2.4 µM | O=C(CS(=O)(=O)c1cn(Cc2cccc(Br)c2)c2cc(F)cc(F)c12)Nc1cccnn1 [compound 7, 2-((1-(3-bromobenzyl)-4,6-difluoro-1H-indol-3-yl)sulfonyl)-N-(pyridazin-3-yl)acetamide] |
| 79% | 6.54 µM | COc1cccc(Cn2cc(S(=O)(=O)CC(=O)Nc3cc(C)on3)c3ccccc32)c1 [compound 33, 2-((1-(3-methoxybenzyl)-1H-indol-3-yl)sulfonyl)-N-(5-methylisoxazol-3-yl)acetamide] |
| – | > 10 µM | Cc1cc(NC(=O)CS(=O)(=O)c2cn(Cc3cccc(-c4cnn(CC(C)C)c4)c3)c3ccccc23)no1 [compound 65, N-(5-methyl-1,2-oxazol-3-yl)-2-[1-({3-[1-(2-methylpropyl)-1H-pyrazol-4-yl]phenyl}methyl)-1H-indole-3-sulfonyl]acetamide] |
| 68% | 2.4 µM | Cc1cc(NC(=O)CS(=O)(=O)c2cn(Cc3cccc(-c4cccnc4)c3)c3cc(F)cc(F)c23)no1 [compound 8, 2-((4,6-difluoro-1-(3-(pyridin-3-yl)benzyl)-1H-indol-3-yl)sulfonyl)-N-(5-methylisoxazol-3-yl)acetamide] |
| 102% | 1.85 µM | Cc1cc(NC(=O)CS(=O)(=O)c2cn(Cc3cccc(-c4cn[nH]c4)c3)c3cc(F)cc(F)c23)no1 [compound 4, 2-((1-(3-(1H-pyrazol-4-yl)benzyl)-4,6-difluoro-1H-indol-3-yl)sulfonyl)-N-(5-methylisoxazol-3-yl)acetamide] |
| – | > 10 µM | Cc1cc(NC(=O)CS(=O)(=O)c2cn(Cc3ccc(OC(F)(F)F)cc3)c3ccccc23)no1 [compound 57, N-(5-methyl-1,2-oxazol-3-yl)-2-(1-{[4-(trifluoromethoxy)phenyl]methyl}-1H-indole-3-sulfonyl)acetamide] |
| – | > 10 µM | Cc1cc(NC(=O)CS(=O)(=O)c2cn(Cc3ccc(Br)cc3F)c3ccccc23)no1 [compound 60, 2-{1-[(4-bromo-2-fluorophenyl)methyl]-1H-indole-3-sulfonyl}-N-(5-methyl-1,2-oxazol-3-yl)acetamide] |
| 43% | > 10 µM | O=C(CS(=O)(=O)c1cn(Cc2cccc(Br)c2)c2cc(F)cc(F)c12)NC1COC1 [compound 34, 2-((1-(3-bromobenzyl)-4,6-difluoro-1H-indol-3-yl)sulfonyl)-N-(oxetan-3-yl)acetamide] |
| 93% | 5.23 µM | Cc1cc(NC(=O)C[S+]([O-])c2cn(Cc3cccc(Cl)c3)c3ccccc23)no1 (stereo not drawn) [compound 29, 2-((1-(3-chlorobenzyl)-1H-indol-3-yl)sulfinyl)-N-(5-methylisoxazol-3-yl)acetamide] |
| 42% | 3.3 µM | COc1ccc(-c2cccc(Cn3cc(S(=O)(=O)CC(=O)Nc4ccccn4)c4c(F)cc(F)cc43)c2)cn1 [compound 16, 2-((4,6-difluoro-1-(3-(6-methoxypyridin-3-yl)benzyl)-1H-indol-3-yl)sulfonyl)-N-(pyridin-2-yl)acetamide] |
